PubChem BioAssay AID192 (DTP/NCI, 2004)
Where “and” joins values, the source holds several entries; their conditions need not be identical. Equal values may be shown once. Inconclusive results and toxic doses are left out. Peptide text beside a SMILES is read from it. * marks the point of attachment. Boc = CC(C)(C)OC(=O)*

Test system: BDF1 mice, B16 melanoma ip, median survival T/C
Test: NCI In Vivo Anticancer Drug Screen. Data for tumor model B16 Melanoma (intraperitoneal) in B6D2F1 (BDF1) mice
Conditions: endpoint: median survival time, higher = longer survival
Method in brief: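 Values are ratios of treated (T) to vehicle-control (C) measurements of survival or tumor size in tumor-bearing mice.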

[1] = dose: 12.5 mg/kg/injection, schedule: Q01DX009 (ip), vehicle: saline with Tween-80
[2] = dose: 100.0 mg/kg/injection, schedule: Q01DX009 (ip), vehicle: saline with Tween-80
[3] = dose: 200.0 mg/kg/injection, schedule: Q01DX009 (ip), vehicle: saline with Tween-80
[4] = dose: 400.0 mg/kg/injection, schedule: Q01DX009 (ip), vehicle: saline with Tween-80
[5] = dose: 0.75 mg/kg/injection, schedule: Q01DX009 (ip), vehicle: saline with Tween-80
[6] = dose: 1.5 mg/kg/injection, schedule: Q01DX009 (ip), vehicle: saline with Tween-80
[7] = dose: 3.0 mg/kg/injection, schedule: Q01DX009 (ip), vehicle: saline with Tween-80
[8] = dose: 100.0 mg/kg/injection, schedule: Q01DX009 (ip), vehicle: Klucel (hydroxypropylcellulose) (HPC)
[9] = dose: 5.0 mg/kg/injection, schedule: Q01DX009 (ip), vehicle: Klucel (hydroxypropylcellulose) (HPC)
[10] = dose: 10.0 mg/kg/injection, schedule: Q01DX009 (ip), vehicle: Klucel (hydroxypropylcellulose) (HPC)
[11] = dose: 20.0 mg/kg/injection, schedule: Q01DX009 (ip), vehicle: Klucel (hydroxypropylcellulose) (HPC)
[12] = dose: 25.0 mg/kg/injection, schedule: Q01DX009 (ip), vehicle: Klucel (hydroxypropylcellulose) (HPC)
[13] = dose: 50.0 mg/kg/injection, schedule: Q01DX009 (ip), vehicle: saline with Tween-80
[14] = dose: 25.0 mg/kg/injection, schedule: Q01DX009 (ip), vehicle: saline with Tween-80
[15] = dose: 50.0 mg/kg/injection, schedule: Q04DX003 (ip), vehicle: Klucel (hydroxypropylcellulose) (HPC)
[16] = dose: 100.0 mg/kg/injection, schedule: Q04DX003 (ip), vehicle: Klucel (hydroxypropylcellulose) (HPC)

O=c1cc(O)c1=O
T/C (dose: 0.78 mg/kg/injection, schedule: Q01DX009 (ip), vehicle: saline with Tween-80): 106 % of control | T/C (dose: 1.56 mg/kg/injection, schedule: Q01DX009 (ip), vehicle: saline with Tween-80): 104 % of control | T/C (dose: 3.13 mg/kg/injection, schedule: Q01DX009 (ip), vehicle: saline with Tween-80): 110 % of control | T/C (dose: 6.25 mg/kg/injection, schedule: Q01DX009 (ip), vehicle: saline with Tween-80): 109 % of control | T/C [1]: 93 % of control

CC(C)(C)OC(=O)NCC(=O)NCC(=O)O (Boc-Gly-Gly-OH)
T/C (dose: 50.0 mg/kg/injection, schedule: Q01DX009 (ip), vehicle: saline): 94 % of control | T/C (dose: 100.0 mg/kg/injection, schedule: Q01DX009 (ip), vehicle: saline): 96 % of control

N=C(N)SCCCN
T/C (dose: 100.0 mg/kg/injection, schedule: Q04DX003 (ip), vehicle: saline): 109 % of control | T/C (dose: 200.0 mg/kg/injection, schedule: Q01DX009 (ip), vehicle: saline): 93 % of control | T/C (dose: 200.0 mg/kg/injection, schedule: Q04DX003 (ip), vehicle: saline): 104 % of control

O=c1c(O)c(-c2ccccc2)oc2ccccc12
T/C [2]: 94 % of control | T/C [3]: 96 % of control | T/C [4]: 91 % of control | T/C (dose: 800.0 mg/kg/injection, schedule: Q01DX009 (ip), vehicle: saline with Tween-80): 93 % of control

C[CH2][Sn]([F])([CH2]C)[CH2]C
T/C (dose: 0.37 mg/kg/injection, schedule: Q01DX009 (ip), vehicle: saline with Tween-80): 104 % of control | T/C [5]: 109 % of control | T/C [6]: 102 % of control | T/C [7]: 94 % of control

O=C(CC1(Cl)C(F)(F)C(F)(F)C1(F)F)c1ccccc1
T/C [5]: 100 % of control | T/C [6]: 100 % of control | T/C [7]: 95 % of control | T/C (dose: 4.0 mg/kg/injection, schedule: Q04DX003 (ip), vehicle: saline): 100 % of control | T/C [1]: 90 % of control | T/C (dose: 25.0 mg/kg/injection, schedule: Q04DX003 (ip), vehicle: saline with Tween-80): 102 % of control

COc1cccc(N=Cc2ccc(C=Nc3cccc(OC)c3)cc2)c1
T/C [8]: 107 % of control | T/C (dose: 200.0 mg/kg/injection, schedule: Q01DX009 (ip), vehicle: Klucel (hydroxypropylcellulose) (HPC)): 96 % of control | T/C (dose: 400.0 mg/kg/injection, schedule: Q01DX009 (ip), vehicle: Klucel (hydroxypropylcellulose) (HPC)): 96 % of control

CC(=O)NNC(=O)c1ccccc1
T/C (dose: 12.5 mg/kg/injection, schedule: Q#A X018 (ip), vehicle: water): 93 % of control | T/C (dose: 25.0 mg/kg/injection, schedule: Q#A X018 (ip), vehicle: water): 93 % of control | T/C (dose: 50.0 mg/kg/injection, schedule: Q#A X018 (ip), vehicle: water): 106 % of control

Nc1cc2[nH]cnc2c(=O)[nH]1
T/C (dose: 12.5 mg/kg/injection, schedule: Q01DX009 (ip), vehicle: suspension in saline): 88 % of control | T/C (dose: 18.8 mg/kg/injection, schedule: Q01DX009 (ip), vehicle: saline): 102 % of control | T/C (dose: 25.0 mg/kg/injection, schedule: Q01DX009 (ip), vehicle: saline): 92 % of control | T/C (dose: 25.0 mg/kg/injection, schedule: Q01DX009 (ip), vehicle: suspension in saline): 95 % of control | T/C (dose: 37.5 mg/kg/injection, schedule: Q01DX009 (ip), vehicle: saline): 102 % of control | T/C (dose: 50.0 mg/kg/injection, schedule: Q01DX009 (ip), vehicle: suspension in saline): 94 % of control | T/C (dose: 75.0 mg/kg/injection, schedule: Q01DX009 (ip), vehicle: saline): 107 % of control | T/C (dose: 100.0 mg/kg/injection, schedule: Q01DX009 (ip), vehicle: suspension in saline): 95 % of control | T/C (dose: 150.0 mg/kg/injection, schedule: Q01DX009 (ip), vehicle: saline): 107 % of control | T/C (dose: 200.0 mg/kg/injection, schedule: Q01DX009 (ip), vehicle: suspension in saline): 106 % of control

CC[PH+](CC)CC[S-].CC[PH+](CC)CC[S-].[Au+].[Au+]
T/C (dose: 2.5 mg/kg/injection, schedule: Q01DX009 (ip), vehicle: Klucel (hydroxypropylcellulose) (HPC)): 109 % of control | T/C [9]: 112 % of control | T/C [10]: 118 % of control | T/C [11]: 112 % of control | T/C (dose: 40.0 mg/kg/injection, schedule: Q01DX009 (ip), vehicle: Klucel (hydroxypropylcellulose) (HPC)): 110 % of control

S=C1NC(c2ccccc2)NC(c2ccccc2)S1 (centres undefined)
T/C (dose: 100.0 mg/kg/injection, schedule: Q01DX009 (ip), vehicle: other): 100 % of control | T/C (dose: 200.0 mg/kg/injection, schedule: Q01DX009 (ip), vehicle: other): 94 % of control | T/C (dose: 400.0 mg/kg/injection, schedule: Q01DX009 (ip), vehicle: other): 86 % of control

Nc1ccccc1SC1CC(=O)N(c2ccc(I)cc2)C1=O (centres undefined)
T/C [1]: 100 % of control | T/C [12]: 108 % of control | T/C (dose: 50.0 mg/kg/injection, schedule: Q01DX009 (ip), vehicle: Klucel (hydroxypropylcellulose) (HPC)): 97 % of control | T/C [13]: 88 % of control | T/C [8]: 88 % of control and 100 % of control

O=C1C(NCCO)=C(N2CC2)C(=O)C(NCCO)=C1N1CC1
T/C (dose: 0.19 mg/kg/injection, schedule: Q01DX009 (ip), vehicle: saline): 165 % of control and 202 % of control | T/C (dose: 0.37 mg/kg/injection, schedule: Q01DX009 (ip), vehicle: saline): 161 % of control | T/C (dose: 0.38 mg/kg/injection, schedule: Q01DX009 (ip), vehicle: saline): 191 % of control and 236 % of control | T/C (dose: 0.75 mg/kg/injection, schedule: Q01DX009 (ip), vehicle: saline): 221 % of control

C#CC(C)OCC1CNC(=S)O1 (centres undefined)
T/C [14]: 100 % of control | T/C [13]: 89 % of control | T/C [2]: 97 % of control | T/C [4]: 91 % of control

C[N+](C)(C)CCOc1ccc(Cl)cc1
T/C (dose: 12.5 mg/kg/injection, schedule: Q04DX003 (ip), vehicle: Klucel (hydroxypropylcellulose) (HPC)): 105 % of control | T/C (dose: 25.0 mg/kg/injection, schedule: Q04DX003 (ip), vehicle: Klucel (hydroxypropylcellulose) (HPC)): 107 % of control | T/C [15]: 107 % of control | T/C [16]: 94 % of control

O=c1oc2c3ccccc3c3ccccc3c2o1
T/C (dose: 1.56 mg/kg/injection, schedule: Q01DX009 (ip), vehicle: Klucel (hydroxypropylcellulose) (HPC)): 100 % of control | T/C (dose: 3.12 mg/kg/injection, schedule: Q01DX009 (ip), vehicle: Klucel (hydroxypropylcellulose) (HPC)): 96 % of control | T/C (dose: 6.25 mg/kg/injection, schedule: Q01DX009 (ip), vehicle: Klucel (hydroxypropylcellulose) (HPC)): 113 % of control | T/C (dose: 12.5 mg/kg/injection, schedule: Q01DX009 (ip), vehicle: Klucel (hydroxypropylcellulose) (HPC)): 106 % of control | T/C [12]: 86 % of control and 96 % of control

COc1cc2cc3c4ccccc4cc[n+]3c(C)c2cc1OC (tested in a mixture with another compound)
T/C [9]: 99 % of control | T/C [10]: 99 % of control | T/C [11]: 95 % of control

O=Cc1ccc(C(Cl)(Cl)Cl)cc1
T/C [1]: 91 % of control | T/C [14]: 103 % of control | T/C [13]: 101 % of control and 104 % of control | T/C [2]: 106 % of control and 107 % of control | T/C [3]: 103 % of control and 110 % of control

O=[N+]([O-])c1cccc2ncccc12
T/C [15]: 100 % of control | T/C [16]: 97 % of control | T/C (dose: 200.0 mg/kg/injection, schedule: Q04DX003 (ip), vehicle: Klucel (hydroxypropylcellulose) (HPC)): 91 % of control

CN(C)c1ccc(N=C2C=CC(=O)C=C2)cc1
T/C (dose: 1.5 mg/kg/injection, schedule: Q01DX009 (ip), vehicle: saline): 111 % of control | T/C (dose: 3.0 mg/kg/injection, schedule: Q01DX009 (ip), vehicle: saline): 98 % of control | T/C (dose: 6.0 mg/kg/injection, schedule: Q01DX009 (ip), vehicle: saline): 105 % of control
